US20160045505A1, “COMPOUNDS AND COMPOSITIONS FOR THE TREATMENT OF PARASITIC DISEASES” (NOVARTIS AG, priority 2013, published 2016)
Read-outs that look alike come from different tables or passages of the source.

How the values were obtained:
[1] = system: Trypanosoma cruzi amastigotes (Tulahuen strain expressing Lac-Z) cultured in 3T3 fibroblast cells; experiment: microbe, parasite or virus in culture; assay type: cell-based; details: T. cruzi amastigotes in 3T3 fibroblast cells, read-out: T cruzi EC50
[2] = system: Leishmania donovani axenic amastigote parasites; experiment: Leishmania donovani axenic amastigote proliferation assay (Cell TiterGlo luminescence, 2 day incubation); assay type: cell-based; details: read-out: L. donovani amastigotes EC50
[3] = system: Trypanosoma brucei Lister 427 strain, bloodstream form; experiment: Assay for proliferation of kinetoplastid parasite Trypanosoma brucei (Cell Titer Glo, 48 hours); assay type: cell-based
Summary of the method: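 Bloodstream-form T. brucei Lister 427 in HMI-9 medium was exposed to compound (DMSO vehicle) for 48 hours at 37° C, 5% CO2. Parasite growth was read as ATP by CellTiter-Glo luminescence, with EC50 calculated from percent inhibition.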

[4] = system: L. donovani HU3 strain in mouse peritoneal macrophages; experiment: Assay for proliferation of Leishmania parasites in infected mouse peritoneal macrophages (SybrGreen staining, high-content imaging, 5 days); assay type: cell-based, Leishmania donovani; details: L. donovani in mouse peritoneal macrophages, read-out: L. donovani Macrophage EC50
[5] = Trypanosoma cruzi, TULAHUEN, Fibroblast, inhibition of proliferation
[6] = Leishmania donovani, axenic amastigotes, inhibition of proliferation
[7] = Trypanosoma brucei, T. brucei Lister 427 bloodstream form, inhibition of proliferation, read-out: T. brucei EC50
[8] = Leishmania donovani, Peritoneal macrophage, inhibition of proliferation
[9] = Trypanosoma cruzi, TULAHUEN, Fibroblast
[10] = Leishmania donovani, L. donovani axenic amastigotes
[11] = Trypanosoma brucei, T. brucei Lister 427 bloodstream form, read-out: T. brucei EC50
[12] = Leishmania donovani, Peritoneal macrophage

Structure (SMILES)	EC50 [1, 5] [nM]	EC50 [2, 6] [nM]	EC50 [3, 7] [µM]	EC50 [4, 8] [nM]	EC50 [1, 9] [nM]	EC50 [2, 10] [nM]	EC50 [3, 11] [µM]	EC50 [4, 12] [nM]	also measured
Cc1nc(C)c(C(=O)Nc2ccc(F)c(-c3cn4cc(NC(=O)OC5CCCC5)cnc4n3)c2)o1 [Compound 306]	673	315	0.36	835					
O=C(Nc1ccc(F)c(-c2cn3cc(C(F)(F)F)cnc3n2)c1)N1CCC1 [Compound 299]	45	92	0.034	178					
CN(C)C(=O)Nc1ccc(F)c(-c2cn3cc(C4=CCOCC4)cnc3n2)c1 [Compound 324]	253	288	0.047	1570					
CC(C)OC(=O)Nc1cnc2nc(-c3cc(NC(=O)c4cocn4)ccc3Cl)cn2c1 [Compound 43]	409	782	0.474	3910					
COc1cnc2nc(-c3cc(NC(=O)c4oc(C)nc4C)ccc3F)cn2c1 [Compound 607]					437	705	1.04	443	
O=C(Nc1ccc(F)c(-c2cn3cc(C4=CCOCC4)cnc3n2)c1)N1CC(F)(F)C1 [Compound 320]	186	58	0.035	180					
CN(C)C(=O)Nc1ccc(F)c(-c2cn3cc(N(C)C)cnc3n2)c1 [Compound 583, 3-(3-(6-(dimethylamino)imidazo[1,2-a]pyrimidin-2-yl)-4-fluorophenyl)-1,1-dimethylurea]					377	869	0.139	1790	
Cc1nc(C)c(C(=O)Nc2ccc(F)c(-c3cn4cc(NC(=O)C5CCCCO5)cnc4n3)c2)o1 (single isomer, unassigned) [Compound 185]									EC50 ([1]; inhibition of proliferation): 1070 nM; EC50 ([2]; axenic amastigotes, inhibition of proliferation): 462 nM; EC50 ([3]; T. brucei Lister 427 bloodstream form, inhibition of proliferation, read-out: T. brucei EC50): 0.954 µM; EC50 ([4]; inhibition of proliferation): 1140 nM
Cc1nc(C)c(C(=O)Nc2ccc(F)c(-c3cn4cc(NC(=O)OCCCCl)cnc4n3)c2)o1 [Compound 519]					3260	244	0.366	1620	
O=C(Nc1ccc(F)c(-c2cn3cc(Cl)cnc3n2)c1)N1CC(F)(F)C1 [Compound 235]	433	215	0.165	821					
CC(C)OC(=O)Nc1cnc2nc(-c3cc(NC(=O)C4CC4)ccc3F)cn2c1 [Compound 240]	602	1180	0.439	> 50000					
CC(C)(C)OC(=O)N1CCOC(C(=O)Nc2ccc(F)c(-c3cn4cc(C5CC5)cnc4n3)c2)C1 (centres unmarked) [Compound 602]					13600	> 25000	> 50	> 50000	
CC(C)OC(=O)Nc1ccc(F)c(-c2cn3cc(C(C)C)cnc3n2)c1 [Compound 414]					115	217	0.131	1160	
CC(=O)c1ccc(C(=O)Nc2ccc(F)c(-c3cn4cc(NC(=O)OC(C)C)cnc4n3)c2)s1 [Compound 83]	7040	15400	> 50	6810					
Cc1nc(C)c(C(=O)Nc2ccc(F)c(-c3cn4cc(Cl)cnc4n3)c2)o1 [Compound 205]	413	300	0.352	1240					
CN(C)C(=O)Nc1ccc(F)c(-c2cn3cc(C(F)F)cnc3n2)c1 [Compound 239]	372	515	0.35	2200					
Cc1ncc(C(=O)Nc2cccc(-c3cn4cc(NC(=O)OC(C)C)cnc4n3)c2)o1 [Compound 202]	> 20000	229	0.249	2720					
Cc1nc(C)c(C(=O)Nc2ccc(F)c(-c3cn4cc(C5=CC(C)(C)OC(C)(C)C5)cnc4n3)c2)o1 [Compound 379]					683	528	1.43	1680	
CN(C)c1cnc2nc(-c3cc(NC(=O)N4CCC4)ccc3F)cn2c1 [Compound 469]					146	143	0.055	230	
COCCN(C(=O)OC(C)C)c1cnc2nc(-c3cc(NC(=O)c4oc(C)nc4C)ccc3F)cn2c1 [Compound 555]					1320	3110	1.57	5470	
Cc1nc(C)c(C(=O)Nc2ccc(F)c(-c3cn4cc(-c5cccn5C(=O)OC(C)(C)C)cnc4n3)c2)o1 [Compound 364]	220	279	0.178	155					

Structure (SMILES)	EC50 [1, 5] [nM]	EC50 [2, 6] [nM]	EC50 [3, 7] [µM]	EC50 [4, 8] [nM]	EC50 [1, 9] [nM]	EC50 [2, 10] [nM]	EC50 [3, 11] [µM]	EC50 [4, 12] [nM]	also measured
Cc1nc(C)c(C(=O)Nc2ccc(F)c(-c3cn4cc(C#CCCN5CCOCC5)cnc4n3)c2)o1 [Compound 544, N-(4-fluoro-3-(6-(4-morpholinobut-1-yn-1-yl)imidazo[1,2-a]pyrimidin-2-yl)phenyl)-2,4-dimethyloxazole-5-carboxamide]					4010	4040	> 50	19300	
Cc1nc(C)c(C(=O)Nc2ccc(F)c(-c3cn4cc(-c5ncc(F)cc5F)cnc4n3)c2)o1 [Compound 447]					20	36	0.103	1380	
Cc1nc(C)c(C(=O)Nc2ccc(F)c(-c3cn4cc(-c5ccc(F)cc5)cnc4n3)c2)o1 [Compound 396]					17	55	0.042	88	
COc1cccnc1Nc1ccc(F)c(-c2cn3cc(NC(=O)OC(C)C)cnc3n2)c1 [Compound 498]					1340	849	0.478	28000	
Cc1nc(C(=O)Nc2cnc3nc(-c4cc(NC(=O)c5oc(C)nc5C)ccc4F)cn3c2)no1 [Compound 183]	> 20000	3630	2.1	11500					
O=C(Nc1ccc(F)c(-c2cn3cc(C(F)(F)F)cnc3n2)c1)N1CC[C@H](F)C1 [Compound 297]	37	52	0.051	223					
Cc1nc(C)c(C(=O)Nc2ccc(F)c(-c3cn4cc(NC(=O)[C@H]5NCC[C@@H]5O)cnc4n3)c2)o1 [Compound 160]	> 20000	> 25000	28.7	> 50000					
COCC(=O)Nc1cnc2nc(-c3cc(NC(=O)N4CCCC4)ccc3F)cn2c1 [Compound 139]	3740	450	0.128	6820					
O=C(Nc1cnc2nc(-c3cc(NC(=O)N4CCCC4)ccc3F)cn2c1)C1CCCN1 (centres unmarked) [Compound 121]	> 20000	23100	3.95	> 50000					
COC(C)C(=O)Nc1cnc2nc(-c3cc(NC(=O)c4oc(C)nc4C)ccc3F)cn2c1 (centres unmarked) [Compound 177]	3470	310	0.161	911					
O=C1CC(C(=O)Nc2cnc3nc(-c4cc(NC(=O)N5CCCC5)ccc4F)cn3c2)C1 [Compound 141]	> 20000	862	1.36	8280					
Cc1nc(C)c(C(=O)Nc2ccc(F)c(-c3cn4cc(-c5cnccn5)cnc4n3)c2)o1 [Compound 251]	61	35	0.045	85					
CC1(C(=O)Nc2cnc3nc(-c4cc(NC(=O)N5CCCC5)ccc4F)cn3c2)CCC1 [Compound 145]	1730	223	0.045	464					
O=C(Nc1ccc(Cl)c(-c2cn3cc(-c4ccccn4)cnc3n2)c1)N1CCCC1 [Compound 456, N-(4-chloro-3-(6-(pyridin-2-yl)imidazo[1,2-a]pyrimidin-2-yl)phenyl)pyrrolidine-1-carboxamide]					40	42		218	EC50 ([3]; Trypanosoma brucei, read-out: T. brucei EC50 (μM)): 0.054 µM
Cc1nc(C)c(C(=O)N(C)c2ccc(F)c(-c3cn4cc(N(C)C(=O)OC(C)C)cnc4n3)c2)o1 [Compound 553]					3110	3480	4.29	3610	
CC(C)OC(=O)Nc1cnc2nc(-c3cc(NC(=O)C4CC4)ccc3Cl)cn2c1 [Compound 245]	1130	1690	1.4	2030					
Cc1nc(C)c(C(=O)Nc2ccc(F)c(-c3cn4cc(-c5ccn[nH]5)cnc4n3)c2)o1 [Compound 369]	988	282	0.154	294					
CC1(C(=O)Nc2cnc3nc(-c4cc(NC(=O)N5CCCC5)ccc4F)cn3c2)CC1 [Compound 133]	1840	97	0.019	607					
Cc1nc(C)c(C(=O)Nc2ccc(F)c(-c3cn4cc(NC(=O)C5(C)CCC5)cnc4n3)c2)o1 [Compound 114]	1070	143	0.105	266					
Cc1nc(C)c(C(=O)Nc2ccc(F)c(-c3cn4cc(N5C[C@@H](C)O[C@@H](C)C5)cnc4n3)c2)o1 [Compound 491]					296	234	0.14	743	
